≈ marks a conversion by molar mass, not a printed value. Like-named read-outs stand apart in the source and are kept apart here.
Tests used:
[1] = system: carbapenemase producing K. pneumoniae; assay: MIC by broth micro-dilution (CLSI), carbapenemase producing K. pneumoniae; assay type: cell-based, Klebsiella pneumoniae
[2] = system: carbapenem sensitive Escherichia coli; assay: MIC by broth micro-dilution (CLSI), carbapenem sensitive E. coli; assay type: cell-based
[3] = system: methicillin-sensitive Staphylococcus aureus; assay: MIC by broth micro-dilution (CLSI), methicillin-sensitive S. aureus; assay type: cell-based; settings: MSSA S. aureus ATCC29213
[4] = system: carbapenem sensitive Pseudomonas aeruginosa; assay: MIC by broth micro-dilution (CLSI), carbapenem sensitive P. aeruginosa; assay type: cell-based
[5] = Klebsiella pneumoniae, ATCCBAA1705, KPC-2 K. pneumoniae ATCC BAA-1705, read-out: MIC
[6] = Escherichia coli, ATCC25922, ESBL −ve E. coli ATCC25922, read-out: MIC
[7] = Staphylococcus aureus, ATCC 29213 / MSSA, read-out: MIC
[8] = Pseudomonas aeruginosa, ATCC27853, Meropenem susceptible P. aeruginosa ATCC27853, read-out: MIC

MIC [1, 5] [µg/mL]	MIC [2, 6] [µg/mL]	MIC [3, 7] [µg/mL]	MIC [4, 8] [µg/mL]	MIC ([3]; Staphylococcus aureus, ATCC29213|MSSA, read-out: MIC) [µg/mL]	MIC ([1]; KPC-2 K. pneumoniae ATCC BAA-1705) [µg/mL]	MIC ([2]; ESBL −ve E. coli ATCC25922) [µg/mL]	MIC [3] [µg/mL]	MIC ([4]; Meropenem susceptible P. aeruginosa ATCC27853) [µg/mL]	SMILES
0.5 (≈ 0.845 µM)	0.25 (≈ 0.423 µM)	1 (≈ 1.69 µM)	1 (≈ 1.69 µM)						C[C@@H](NC(=O)Cn1cnnn1)[C@H]1C(=O)N2C(C(=O)O)=C(S[C@@H]3CN[C@H](C(=O)N4C[C@@H](O)[C@H](NC(=N)N)C4)C3)[C@H](C)[C@H]12 [Example 544, (4R,5S,6R)-6-((R)-1-(2-(1H-tetrazol-1-yl)acetamido)ethyl)-3-((3S,5S)-5-((3R,4R)-3-guanidino-4-hydroxypyrrolidine-1-carbonyl)pyrrolidin-3-ylthio)-4-methyl-7-oxo-1-azabicyclo[3.2.0]hept-2-ene-2-carboxylic acid]
0.5 (≈ 0.845 µM)	0.125 (≈ 0.211 µM)	1 (≈ 1.69 µM)	1 (≈ 1.69 µM)						C[C@@H](NC(=O)Cn1cnnn1)[C@H]1C(=O)N2C(C(=O)O)=C(S[C@@H]3CN[C@H](C(=O)N4C[C@H](O)[C@H](NC(=N)N)C4)C3)[C@H](C)[C@H]12 [Example 545, (4R,5S,6R)-6-((R)-1-(2-(1H-tetrazol-1-yl)acetamido)ethyl)-3-((3S,5S)-5-((3R,4S)-3-guanidino-4-hydroxypyrrolidine-1-carbonyl)pyrrolidin-3-ylthio)-4-methyl-7-oxo-1-azabicyclo[3.2.0)hept-2-ene-2-carboxylic acid]
1 (≈ 1.69 µM)	0.25 (≈ 0.423 µM)	1 (≈ 1.69 µM)	2 (≈ 3.38 µM)						C[C@@H](NC(=O)Cn1cnnn1)[C@H]1C(=O)N2C(C(=O)O)=C(S[C@@H]3CN[C@H](C(=O)N4C[C@@H](O)[C@@H](NC(=N)N)C4)C3)[C@H](C)[C@H]12 [Example 546, (4R,5S,6R)-6-((R)-1-(2-(1H-tetrazol-1-yl)acetamido)ethyl)-3-((3S,5S)-5-((3S,4R)-3-guanidino-4-hydroxypyrrolidine-1-carbonyl)pyrrolidin-3-ylthio)-4-methyl-7-oxo-1-azabicyclo[3.2.0]hept-2-ene-2-carboxylic acid]
2 (≈ 3.23 µM)	0.5 (≈ 0.807 µM)	4 (≈ 6.45 µM)	2 (≈ 3.23 µM)						C[C@@H](NC(=O)Cn1cnnn1)[C@H]1C(=O)N2C(C(=O)O)=C(S[C@@H]3CN[C@H](C(=O)N4CC5[C@H](O)[C@H](N)C[C@@]5(CO)C4)C3)[C@H](C)[C@H]12 (stereo partly drawn) [Example 547, (4R,5S,6R)-6-((R)-1-(2-(1H-tetrazol-1-yl)acetamido)ethyl)-3-((3S,5S)-5-((3aS,5R,6S)-5-amino-6-hydroxy-3a-(hydroxymethyl)octahydro-cyclopenta[c]pyrrole-2-carbonyl)pyrrolidin-3-ylthio)-4-methyl-7-oxo-1-azabicyclo-[3.2.0]-hept-2-ene-2-carboxylic acid]
1 (≈ 1.73 µM)	0.25 (≈ 0.431 µM)	8 (≈ 13.8 µM)	4 (≈ 6.9 µM)						C[C@@H](NC(=O)Cn1cnnn1)[C@H]1C(=O)N2C(C(=O)O)=C(S[C@@H]3CN[C@H](C(=O)N4C[C@@H](O)[C@H](N)[C@H]4CO)C3)[C@H](C)[C@H]12 [Example 548, (4R,5S,6R)-6-((R)-1-(2-(1H-tetrazol-1-yl)acetamido)ethyl)-3-((3S,5S)-5-((2S,3R,4R)-3-amino-4-hydroxy-2-(hydroxymethyl)pyrrolidine-1-carbonyl)pyrrolidin-3-ylthio)-4-methyl-7-oxo-1-azabicyclo[3.2.0]hept-2-ene-2-carboxylic acid]
1 (≈ 1.73 µM)	0.125 (≈ 0.216 µM)	4 (≈ 6.9 µM)	1 (≈ 1.73 µM)						C[C@@H](NC(=O)Cn1cnnn1)[C@H]1C(=O)N2C(C(=O)O)=C(S[C@@H]3CN[C@H](C(=O)N4C[C@H](N)[C@@H](O)[C@H]4CO)C3)[C@H](C)[C@H]12 [Example 549, (4R,5S,6R)-6-((R)-1-(2-(1H-tetrazol-1-yl)acetamido)ethyl)-3-((3S,5S)-5-((2R,3R,4S)-4-amino-3-hydroxy-2-(hydroxymethyl)pyrrolidine-1-carbonyl)pyrrolidin-3-ylthio)-4-methyl-7-oxo-1-azabicyclo[3.2.0]hept-2-ene-2-carboxylic acid]
2 (≈ 3.75 µM)	0.25 (≈ 0.469 µM)		8 (≈ 15 µM)	1 (≈ 1.88 µM)					C[C@@H](NC(=O)Cn1cnnn1)[C@H]1C(=O)N2C(C(=O)O)=C(S[C@@H]3CN[C@H](C(=N)N4CC[C@@H](N)C4)C3)[C@H](C)[C@H]12 [Example 550]
1 (≈ 1.77 µM)	0.25 (≈ 0.444 µM)	2 (≈ 3.55 µM)	2 (≈ 3.55 µM)						C[C@@H](NC(=O)Cn1cnnn1)[C@H]1C(=O)N2C(C(=O)O)=C(S[C@@H]3CN[C@H](C(=O)N4CC[C@@H](N)[C@H](O)C4)C3)[C@H](C)[C@H]12 [Example 553, (4R,5S,6R)-6-((R)-1-(2-(1H-tetrazol-1-yl)acetamido)ethyl)-3-((3S,5S)-5-((3R,4R)-4-amino-3-hydroxypiperidine-1-carbonyl)pyrrolidin-3-ylthio)-4-methyl-7-oxo-1-azabicyclo[3.2.0]hept-2-ene-2-carboxylic acid]
2 (≈ 3.55 µM)	0.5 (≈ 0.887 µM)	4 (≈ 7.1 µM)	2 (≈ 3.55 µM)						C[C@@H](NC(=O)Cn1cnnn1)[C@H]1C(=O)N2C(C(=O)O)=C(S[C@@H]3CN[C@H](C(=O)N4CC[C@H](N)[C@@H](O)C4)C3)[C@H](C)[C@H]12 [Example 554, (4R,5S,6R)-6-((R)-1-(2-(1H-tetrazol-1-yl)acetamido)ethyl)-3-((3S,5S)-5-((3S,4S)-4-amino-3-hydroxypiperidine-1-carbonyl)-pyrrolidin-3-ylthio)-4-methyl-7-oxo-1-azabicyclo[3.2.0]hept-2-ene-2-carboxylic acid]
2 (≈ 3.24 µM)	0.5 (≈ 0.809 µM)	16 (≈ 25.9 µM)	2 (≈ 3.24 µM)						C[C@@H](NC(=O)Cn1cnnn1)[C@H]1C(=O)N2C(C(=O)O)=C(S[C@@H]3CN[C@H](C(=O)N4CCC5CNCC5(C(=O)O)C4)C3)[C@H](C)[C@H]12 (stereo partly drawn) [Example 562, 5-((2S,4S)-4-((4R,5S,6R)-6-((R)-1-(2-(1H-tetrazol-1-yl)acetamido)ethyl)-2-carboxy-4-methyl-7-oxo-1-azabicyclo[3.2.0]hept-2-en-3-yl-thio)pyrrolidine-2-carbonyl)octahydro-1H-pyrrolo[3,4-c]pyridine-3a-carboxylic acid]
					2 (≈ 3.24 µM)	0.25 (≈ 0.405 µM)	16 (≈ 25.9 µM)	2 (≈ 3.24 µM)	C[C@@H](NC(=O)Cn1cnnn1)[C@H]1C(=O)N2C(C(=O)O)=C(S[C@@H]3CN[C@H](C(=O)N4CCC5CNCC5(C(=O)O)C4)C3)[C@H](C)[C@H]12 (stereo partly drawn) [Example 563, 5-((2S,4S)-4-((4R,5S,6R)-6-((R)-1-(2-(1H-tetrazol-1-yl)acetamido)ethyl)-2-carboxy-4-methyl-7-oxo-1-azabicyclo[3.2.0]hept-2-en-3-yl-thio)pyrrolidine-2-carbonyl)octahydro-1H-pyrrolo[3,4-c]pyridine-3a-carboxylic acid]
1 (≈ 1.71 µM)	0.125 (≈ 0.213 µM)	2 (≈ 3.41 µM)	1 (≈ 1.71 µM)						C[C@@H](NC(=O)Cn1cnnn1)[C@H]1C(=O)N2C(C(=O)O)=C(S[C@@H]3CN[C@H](C(=O)N4CC5C[C@@H]6C[C@]5(CN6)C4)C3)[C@H](C)[C@H]12 (stereo partly drawn) [Example 564, (4R,5S,6R)-6-((R)-1-(2-(1H-tetrazol-1-yl)acetamido)ethyl)-3-((3S,5S)-5-((1S,7R)-3,8-Diaza-tricyclo[5.2.1.01,5]decane-3-carbonyl)-pyrrolidin-3-ylthio)-4-methyl-7-oxo-1-azabicyclo[3.2.0]hept-2-ene-2-carbnxylic acid]
2 (≈ 3.39 µM)	0.25 (≈ 0.423 µM)	2 (≈ 3.39 µM)	1 (≈ 1.69 µM)						C[C@@H](NC(=O)Cn1cnnn1)[C@H]1C(=O)N2C(C(=O)O)=C(S[C@@H]3CN[C@H](C(=O)N4C[C@H](N)[C@H](NC(=N)N)C4)C3)[C@H](C)[C@H]12 [Example 565, (4R,5S,6R)-6-((R)-1-(2-(1H-tetrazol-1-yl)acetamido)ethyl)-3-((3S,5S)-5-((3S,4R)-3-amino-4-guanidinopyrrolidine-1-carbonyl)-pyrrolidin-3-ylthio)-4-methyl-7-oxo-1-azabicyclo[3.2.0]hept-2-ene-2-carboxylic acid]
0.5 (≈ 0.89 µM)	0.06 (≈ 0.107 µM)	0.5 (≈ 0.89 µM)	0.25 (≈ 0.445 µM)						C[C@@H](NC(=O)Cn1cnnn1)[C@H]1C(=O)N2C(C(=O)O)=C(S[C@@H]3CN[C@H](C(=O)N4CC(NC(=N)N)C4)C3)[C@H](C)[C@H]12 [Example 566, (4R,5S,6R)-6-((R)-1-(2-(1H-tetrazol-1-yl)acetamido)ethyl)-3-((3S,5S)-5-(3-guanidinoazetidine-1-carbonyl)pyrrolidin-3-ylthio)-4-methyl-7-oxo-1-azabicyclo[3.2.0]hept-2-ene-2-carboxylic acid]
0.5 (≈ 0.79 µM)	0.125 (≈ 0.198 µM)	1 (≈ 1.58 µM)	1 (≈ 1.58 µM)						C[C@@H](NC(=O)Cn1cnnn1)[C@H]1C(=O)N2C(C(=O)O)=C(S[C@@H]3CN[C@H](C(=O)N4CC[C@@H](NC(=O)CNC(=N)N)C4)C3)[C@H](C)[C@H]12 [Example 567, (4R,5S,6R)-6-((R)-1-(2-(1H-tetrazol-1-yl)acetamido)ethyl)-3-((3S,5S)-5-((R)-3-(2-guanidinoacetamido)pyrrolidine-1-carbonyl)pyrrolidin-3-ylthio)-4-methyl-7-oxo-1-azabicyclo[3.2.0]hept-2-ene-2-carboxylic acid]
2 (≈ 3.84 µM)	1 (≈ 1.92 µM)	16 (≈ 30.7 µM)	4 (≈ 7.68 µM)						C[C@@H](NC(=O)CC1CNC1)[C@H]1C(=O)N2C(C(=O)O)=C(S[C@@H]3CN[C@H](C(=O)N4CC[C@@H](N)C4)C3)[C@H](C)[C@H]12 [Example 568, (4R,5S,6R)-3-((3S,5S)-5-((R)-3-aminopyrrolidine-1-carbonyl)pyrroldin-3-ylthio)-6-((R)-1-(2-(azetidin-3-yl)acetamido)ethyl)-4-methyl-7-oxo-1-azabicyclo[3.2.0]hept-2-ene-2-carboxylic acid]
